The results in this text go back to publication PMC11776921 (Journal of chemical theory and computation, 2024).

The test addresses GSK-3β (Homo sapiens, UniProt P49841). The test can be described thus: GSK-3 kinase Z'LYTE assay. Conditions: COB-136 versus COB-187; nitrogen in the pyridine ring replaced by carbon. Type of test: biochemical.

GSK-3β, sequence (P49841 whole entry): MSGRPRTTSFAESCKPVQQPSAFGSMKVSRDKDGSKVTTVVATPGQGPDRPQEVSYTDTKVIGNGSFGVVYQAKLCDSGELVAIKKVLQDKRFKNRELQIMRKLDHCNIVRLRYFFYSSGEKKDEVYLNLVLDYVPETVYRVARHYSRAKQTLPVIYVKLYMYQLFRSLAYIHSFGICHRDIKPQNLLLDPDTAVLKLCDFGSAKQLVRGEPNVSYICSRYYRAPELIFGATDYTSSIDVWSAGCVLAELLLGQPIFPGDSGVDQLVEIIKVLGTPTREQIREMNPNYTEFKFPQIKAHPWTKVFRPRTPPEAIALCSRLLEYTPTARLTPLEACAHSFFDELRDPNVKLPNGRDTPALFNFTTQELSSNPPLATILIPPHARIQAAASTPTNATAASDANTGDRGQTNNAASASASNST

`OC1(c2ccccc2)CSC(=S)N1Cc1ccccc1` (stereo not shown) [COB-136]: the “inhibitory activity (in words)” value is listed as “dramatically impairs the inhibitory activity”.
